Reference: patent publication US20170314056A1, “METHOD OF USING NEAR INFRARED FLUORESCENT DYES FOR IMAGING AND TARGETING CANCERS” (priority 2010, published 2017)
“Also recorded” adds a separate entry of the source.

Test system: human renal tumor tissues
Assay: In vitro fluorescence imaging of freshly harvested human renal tumor tissues
Format: cell-based
Settings: fresh nephrectomy specimens; 20 µM dye, 37° C., 30 minutes
Experimental: Kidney tumor tissue samples were collected from 5 patients immediately after tumor nephrectomy according to an Emory approved IRB protocol. All 5 patients had histologically confirmed renal cell carcinoma of the clear cell type. The tissues were excised from tumor area, normal area and the area of tumor and normal adjacent on the kidney removed. All above procedures were conducted on ice and the excised tissues were stored at 4° C. Each incised tissue was cut into three pieces and were incubated with 20 µM IR-783 dye, 20 µM IR-780 and PBS, respectively, at 37° C. for 30 minutes. The dye solutions were removed and the tissues were washed five times by PBS. Optical imaging was done using Kodak Imaging Station Imaging System (see above).
To determine dye uptake in tissues, tissues cut from incised kidney samples (described above) tumor were placed in OTC medium and frozen at −80° C. These frozen tissues were retrieved for histopathologic sections cut to 5 Lm thickness for pathologic observation under a confocal microscope as described above.

## 2-[2-[2-Chloro-3-[2-[1,3-dihydro-3,3-dimethyl-1-(4-sulfobutyl)-2H-indol-2-ylidene]-ethylidene]-1-cyclohexen-1-yl]-ethenyl]-3,3-dimethyl-1-(4-sulfobutyl)-3H-indolium [IR-783]
  dye uptake in human renal tumor tissue: can be taken up; also recorded: significant uptake; also recorded: strong IR-783 uptake
  dye uptake in normal kidney tissue: substantial low uptake; also recorded: undetectable; also recorded: not in normal kidney tissues
  signal in tumor tissues compared with IR-780 and PBS: stronger signals in tumor tissues than the IR-780 and PBS group
